Usually IC50 stands for the midpoint of a concentration-inhibition curve. Read a high IC50 as a need for much substance.

Where only a bound is given, the exact number is not on record here.

One assay relates to Human betaherpesvirus 5. Put plainly: Inhibitory concentration required against HCMV (Human cytomegalovirus) by using HCMV AD169 and assay is via an indicator gene in the virus. It counts as functional, organism-based.
Assay [1] can be described thus: Inhibitory concentration required against HSV-1 (Herpes simplex virus) by using HSV-1 in ELISA assay. It counts as functional. Background: In an ELISA, binding on a coated surface is turned into a signal by an enzyme label.
The next assay deals with Human orthopneumovirus. Description: In vitro inhibitory concentration against HRSV (Human respiratory syncytial virus) by using RSV A2 and the assay is by ELISA. It counts as functional, organism-based.
Assay [2] concerns Respiratory syncytial virus. Put plainly: In vitro inhibitory activity against respiratory syncytial virus (RSV). Format: functional, organism-based. The settings on record: human respiratory syncytial virus.

Regarding `NC(=O)CCN(CCC(N)=O)S(=O)(=O)c1cccc(Nc2nc(Nc3cccc(S(=O)(=O)N(CCC(N)=O)CCC(N)=O)c3)nc(Nc3ccc(-c4ccc(Nc5nc(Nc6cccc(S(=O)(=O)N(CCC(N)=O)CCC(N)=O)c6)nc(Nc6cccc(S(=O)(=O)N(CCC(N)=O)CCC(N)=O)c6)n5)cc4S(=O)(=O)O)c(S(=O)(=O)O)c3)n2)c1`, the half-maximal inhibitory concentration (IC50) in the assay on Human betaherpesvirus 5 amounted to 13900 nM; in assay [1], 19500 nM; in the assay with Human orthopneumovirus it was 80 nM; in assay [2], 50 nM.

As to `NC(=O)CNS(=O)(=O)c1cccc(Nc2nc(Nc3cccc(S(=O)(=O)NCC(N)=O)c3)nc(Nc3ccc(-c4ccc(Nc5nc(Nc6cccc(S(=O)(=O)NCC(N)=O)c6)nc(Nc6cccc(S(=O)(=O)NCC(N)=O)c6)n5)cc4S(=O)(=O)O)c(S(=O)(=O)O)c3)n2)c1`, the results for the concentration for half-maximal inhibition (IC50) (in the assay on Human betaherpesvirus 5; in assay [1]; in the assay on Human orthopneumovirus) were 1370 nM, greater than 25000 nM and 270 nM, respectively.

In the case of `NC(=O)CCCN(CCCC(N)=O)S(=O)(=O)c1cccc(Nc2nc(Nc3cccc(S(=O)(=O)N(CCCC(N)=O)CCCC(N)=O)c3)nc(Nc3ccc(-c4ccc(Nc5nc(Nc6cccc(S(=O)(=O)N(CCCC(N)=O)CCCC(N)=O)c6)nc(Nc6cccc(S(=O)(=O)N(CCCC(N)=O)CCCC(N)=O)c6)n5)cc4S(=O)(=O)O)c(S(=O)(=O)O)c3)n2)c1`, the IC50 with Human betaherpesvirus 5 came out at 5800 nM; in assay [1], 8500 nM; in the assay with Human orthopneumovirus, 100 nM.

Take `NC(=O)CCNS(=O)(=O)c1cccc(Nc2nc(Nc3cccc(S(=O)(=O)NCCC(N)=O)c3)nc(Nc3ccc(-c4ccc(Nc5nc(Nc6cccc(S(=O)(=O)NCCC(N)=O)c6)nc(Nc6cccc(S(=O)(=O)NCCC(N)=O)c6)n5)cc4S(=O)(=O)O)c(S(=O)(=O)O)c3)n2)c1`: the IC50 amounted to 2640 nM in the assay on Human betaherpesvirus 5, 23200 nM in assay [1] and 660 nM in the assay with Human orthopneumovirus.

Consider `NC(=O)CN(CC(N)=O)S(=O)(=O)c1cccc(Nc2nc(Nc3cccc(S(=O)(=O)N(CC(N)=O)CC(N)=O)c3)nc(Nc3ccc(-c4ccc(Nc5nc(Nc6cccc(S(=O)(=O)N(CC(N)=O)CC(N)=O)c6)nc(Nc6cccc(S(=O)(=O)N(CC(N)=O)CC(N)=O)c6)n5)cc4S(=O)(=O)O)c(S(=O)(=O)O)c3)n2)c1` [RF-1461], for which the IC50 with Human betaherpesvirus 5 was 2550 nM; in assay [1] it was 7700 nM; in the assay with Human orthopneumovirus it was 50 nM.

As to `NC(=O)CCN(CCC(N)=O)S(=O)(=O)c1cccc(Nc2nc(Nc3cccc(S(=O)(=O)N(CCC(N)=O)CCC(N)=O)c3)nc(Nc3ccc(/C=C/c4ccc(Nc5nc(Nc6cccc(S(=O)(=O)N(CCC(N)=O)CCC(N)=O)c6)nc(Nc6cccc(S(=O)(=O)N(CCC(N)=O)CCC(N)=O)c6)n5)cc4S(=O)(=O)O)c(S(=O)(=O)O)c3)n2)c1`, in assay [2], the 50% inhibitory concentration (IC50) amounted to 150 nM.

The values are drawn from ChEMBL document CHEMBL1134023, “The discovery of RFI-641 as a potent and selective inhibitor of the respiratory syncytial virus” (Bioorg Med Chem Lett, 2001).
